Laboratory results from patent publication US20090208543A1, “METHOD AND APPARATUS FOR APPLYING A PROTECTIVE ORAL CARE COMPOSITION” (Oral Health Clinical Services, priority 2008, published 2009).

Assay: Tooth bleaching effectiveness of gels on extracted human teeth (chroma meter, Delta E)
Details: comparison of catalase inhibitors
Experimental: Tooth bleaching effectiveness of the above gels was determined by using extracted human teeth. The teeth were freshly extracted, freed of all adherent tissues and stored in a sterile saline solution. The teeth were removed and the color was measured using a chroma meter commercially available from MINOLTA CR221. Readings were taken to record the L*, a*, and b* parameters. The teeth were then incubated in the various gels for 30 minutes. After this period, the gels were washed off and L*, a*, and b* parameters color re-measured. The change in color (Delta E) was then calculated using the CIE L*a*b* color difference equation:
Delta E=[(delta L*)^2+(delta a*)^2+(delta b*)^2]^0.5

In the case of [F-].[Na+] [sodium fluoride], the “effectiveness among the compositions comprising the inhibitors” value is reported as “least effective”.
